Results published in ChEMBL document CHEMBL1201862, “PubChem BioAssay data set” (2004).
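Growth conditions: 96-well plates. Treatment: test compound, 48 hours, 5 concentrations. Analysis: linear interpolation between bracketing concentrations; unreached endpoints set to highest concentration. GI50 = concentration required for 50% inhibition of growth.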 Activity calls are given as the source filed them. Cut-off read from the data, not from the text of the source: active = GI50 up to about 1.1 µM and inactive = higher.

Key:
Experiment in all cases: NCI anticancer screen, dose series, 48 h
CAKI-1 = test system: CAKI-1
SNB-19 = test system: SNB-19
HCT-15 = test system: HCT-15
MDA-MB-231 = test system: MDA-MB-231
KM12 = test system: KM12
NCI-H226 = test system: NCI-H226
ACHN = test system: ACHN
NCI-H522 = test system: NCI-H522
SW-620 = test system: SW-620
NCI/ADR-RES = test system: NCI/ADR-RES
A498 = test system: A498
PC-3 = test system: PC-3
A549 = test system: A549
CCRF-CEM = test system: CCRF-CEM
HOP-92 = test system: HOP-92
BT-549 = test system: BT-549
786-0 = test system: 786-0
SF-539 = test system: SF-539
EKVX = test system: EKVX
SK-OV-3 = test system: SK-OV-3

SMILES	GI50 (CAKI-1)	GI50 (SNB-19)	GI50 (HCT-15)	GI50 (MDA-MB-231)	GI50 (KM12)	GI50 (NCI-H226)	GI50 (ACHN)	GI50 (NCI-H522)	GI50 (SW-620)	GI50 (NCI/ADR-RES)	GI50 (A498)	GI50 (PC-3)	GI50 (A549)	GI50 (CCRF-CEM)	GI50 (HOP-92)	GI50 (BT-549)	GI50 (786-0)	GI50 (SF-539)	GI50 (EKVX)	GI50 (SK-OV-3)
Cc1ccc2c3c1O[C@H]1c4[nH]c5ccccc5c4C[C@@]4(O)[C@@H](C2)N(C)CC[C@]314	17.3 µM (inactive)	17.9 µM (inactive)	17.2 µM	15.2 µM (inactive)	16.9 µM (inactive)	9.04 µM (inactive)	15.9 µM (inactive)	19.1 µM (inactive)	15 µM (inactive)	17.8 µM (inactive)	17 µM (inactive)	17.3 µM (inactive)	17 µM (inactive)	18.3 µM (inactive)	9.08 µM (inactive)	16.4 µM (inactive)	15.6 µM (inactive)	15.7 µM (inactive)		
CC(CN(C)C)C(=O)c1ccccc1C(=O)O (stereo not given)	28.2 µM (inactive)	39.2 µM (inactive)	31.6 µM	18.8 µM (inactive)	30.5 µM (inactive)		35.6 µM (inactive)	10.7 µM (inactive)	29.3 µM (inactive)	29.1 µM (inactive)	40.8 µM (inactive)	23.9 µM (inactive)	41.1 µM (inactive)	10.1 µM (inactive)	41.9 µM (inactive)	9.59 µM (inactive)	24.2 µM (inactive)		51.1 µM (inactive)	39.4 µM (inactive)
CCOC1OC(CO[Si](C)(C)C(C)(C)C)C(O)CC1n1ccc(=O)[nH]c1=O (stereo not given)	56.4 µM (inactive)	> 100 µM (inactive)	35.6 µM	67 µM (inactive)	88.7 µM (inactive)	> 100 µM (inactive)	> 100 µM (inactive)	20.6 µM (inactive)	23.2 µM (inactive)	> 100 µM (inactive)	> 100 µM (inactive)	64.7 µM (inactive)	51.5 µM (inactive)		85.7 µM (inactive)	> 100 µM (inactive)	78.3 µM (inactive)	75.7 µM (inactive)	> 100 µM (inactive)	
CC(=O)OC1CCn2c1nc1c2C(=O)C=C(N2CC2)C1=O (stereo not given)	0.032 µM (active)	2.88 µM (inactive)	0.403 µM	1.91 µM (inactive)		1.86 µM (inactive)	0.0354 µM (active)	0.0112 µM (active)	< 0.0211 µM (active)	0.402 µM (active)	0.218 µM (active)	0.931 µM (active)	1.41 µM (inactive)	< 0.01 µM (active)	0.378 µM (active)	1.27 µM (inactive)	0.108 µM (active)	0.22 µM (active)	1.02 µM (active)	2.15 µM (inactive)
c1ccc2c(c1)cc1ccc3cccc4ccc2c1c34	> 100 µM (inactive)	81.1 µM (inactive)	6.05 µM	> 100 µM (inactive)	26.2 µM (inactive)	> 100 µM (inactive)	> 100 µM (inactive)	> 100 µM (inactive)	> 100 µM (inactive)	> 100 µM (inactive)		> 100 µM (inactive)	> 100 µM (inactive)	> 100 µM (inactive)	> 100 µM (inactive)	> 100 µM (inactive)	> 100 µM (inactive)	> 100 µM (inactive)	9.04 µM (inactive)	> 100 µM (inactive)
C#CCOC(=O)C(N)CCSC (stereo not given)	> 100 µM (inactive)			> 100 µM (inactive)	> 100 µM (inactive)	> 100 µM (inactive)	> 100 µM (inactive)	> 100 µM (inactive)	> 100 µM (inactive)	> 100 µM (inactive)	> 100 µM (inactive)	> 100 µM (inactive)	> 100 µM (inactive)	> 100 µM (inactive)	> 100 µM (inactive)	> 100 µM (inactive)	> 100 µM (inactive)		> 100 µM (inactive)	> 100 µM (inactive)
O=C(Cn1nnc(-c2ccccc2)n1)N/N=C/c1cn(Cc2ccc(Cl)cc2Cl)c2ccccc12	> 100 µM (inactive)	> 100 µM (inactive)	> 100 µM	> 100 µM (inactive)	> 100 µM (inactive)		> 100 µM (inactive)	43.1 µM (inactive)	58.3 µM (inactive)	> 100 µM (inactive)	75.5 µM (inactive)	> 100 µM (inactive)	51.5 µM (inactive)	44.1 µM (inactive)	> 100 µM (inactive)	> 100 µM (inactive)	36.9 µM (inactive)	> 100 µM (inactive)	44.5 µM (inactive)	> 100 µM (inactive)
N#Cc1c(-c2cccc(Cl)c2)cc(-c2ccc(Cl)cc2)nc1N	26.1 µM (inactive)	11.9 µM (inactive)	17.1 µM	16.1 µM (inactive)	25.2 µM (inactive)	16.3 µM (inactive)	17.7 µM (inactive)	15.1 µM (inactive)	17.5 µM (inactive)	22 µM (inactive)		17.2 µM (inactive)	17.5 µM (inactive)	18.3 µM (inactive)	10.9 µM (inactive)	18.6 µM (inactive)	17 µM (inactive)	17.8 µM (inactive)	15.6 µM (inactive)	18.3 µM (inactive)
N#C[BH2-][n+]1cn(C2CC(O)C(COP(=O)(O)OC3CC(n4cnc5c(=O)[nH]c(N)nc54)OC3CO)O2)c2nc(N)[nH]c(=O)c21 (stereo not given)	> 100 µM (inactive)	> 100 µM (inactive)	> 100 µM	> 100 µM (inactive)	> 100 µM (inactive)	23.1 µM (inactive)	> 100 µM (inactive)	> 100 µM (inactive)	> 100 µM (inactive)	> 100 µM (inactive)	> 100 µM (inactive)	66.4 µM (inactive)	> 100 µM (inactive)	20.5 µM (inactive)	> 100 µM (inactive)	6.25 µM (inactive)	> 100 µM (inactive)	> 100 µM (inactive)	> 100 µM (inactive)	
Cc1[nH]c2ncn(/N=C/c3ccccc3)c(=N)c2c1Cc1ccccc1	> 100 µM (inactive)	> 100 µM (inactive)	> 100 µM	58.1 µM (inactive)	75.7 µM (inactive)	95.5 µM (inactive)	> 100 µM (inactive)		> 100 µM (inactive)	> 100 µM (inactive)	60.8 µM (inactive)	45.7 µM (inactive)	> 100 µM (inactive)	> 100 µM (inactive)	42.4 µM (inactive)	> 100 µM (inactive)	> 100 µM (inactive)	38.5 µM (inactive)	69.8 µM (inactive)	> 100 µM (inactive)
O=C(c1ccccc1)c1c(C(F)(F)F)[n+]([O-])c2ccccc2[n+]1[O-]	0.446 µM (active)	1.44 µM (inactive)	0.785 µM	1.42 µM (inactive)	0.451 µM (active)	1.51 µM (inactive)	1.36 µM (inactive)	0.459 µM (active)	1.48 µM (inactive)	0.469 µM (active)	2.19 µM (inactive)	0.29 µM (active)	0.634 µM (active)	0.495 µM (active)	0.207 µM (active)	0.476 µM (active)	1.92 µM (inactive)	1.83 µM (inactive)	2.17 µM (inactive)	
CCN(CC)Cc1ccc(Nc2c3ccccc3nc3ccccc23)cc1	1.41 µM (inactive)	1.35 µM (inactive)	1 µM	1.66 µM (inactive)	3.17 µM (inactive)		0.364 µM (active)	1.41 µM (inactive)	1.64 µM (inactive)	5.48 µM (inactive)	3.09 µM (inactive)	1.59 µM (inactive)	1.28 µM (inactive)	1.82 µM (inactive)	2.79 µM (inactive)	10.1 µM (inactive)	1.67 µM (inactive)	1.8 µM (inactive)	3.3 µM (inactive)	2 µM (inactive)
CC(C)(C)c1cc(OCc2nnc3sc(-c4ccc(Cl)cc4)nn23)c(Cl)cc1OCc1nnc2sc(-c3ccc(Cl)cc3)nn12	2.3 µM (inactive)	3.59 µM (inactive)	3.31 µM	8.15 µM (inactive)	2.47 µM (inactive)	17.3 µM (inactive)	5.4 µM (inactive)	0.564 µM (active)	3.13 µM (inactive)	2.01 µM (inactive)	8.73 µM (inactive)	4.62 µM (inactive)	4.21 µM (inactive)		0.895 µM (active)	4.7 µM (inactive)	3.97 µM (inactive)	2.57 µM (inactive)	13.1 µM (inactive)	4.06 µM (inactive)
CCCC#CC(O)(C(=O)OC1CCN(C)CC1)C1CCCCC1 (stereo not given)	> 100 µM (inactive)	> 100 µM (inactive)	> 100 µM	> 100 µM (inactive)	> 100 µM (inactive)	94.4 µM (inactive)	> 100 µM (inactive)		> 100 µM (inactive)	> 100 µM (inactive)	94.6 µM (inactive)	48.3 µM (inactive)	> 100 µM (inactive)	> 100 µM (inactive)	85.7 µM (inactive)	88.7 µM (inactive)	> 100 µM (inactive)	> 100 µM (inactive)	> 100 µM (inactive)	> 100 µM (inactive)
CC(=O)OC1C2CCC3C(C)(O)C4CC(O)C(C)(C)C4(O)C(O)CC13CC2(C)O (stereo not given)	> 100 µM (inactive)	> 100 µM (inactive)	> 100 µM	> 100 µM (inactive)	> 100 µM (inactive)	> 100 µM (inactive)	> 100 µM (inactive)	> 100 µM (inactive)		> 100 µM (inactive)	> 100 µM (inactive)	> 100 µM (inactive)	> 100 µM (inactive)	> 100 µM (inactive)	> 100 µM (inactive)	> 100 µM (inactive)	> 100 µM (inactive)	> 100 µM (inactive)	> 100 µM (inactive)	> 100 µM (inactive)
